Results taken from PubChem BioAssay AID248 (DTP/NCI, 2004).
Toxic doses and inconclusive results are not listed. Rule as the data show it: active = T/C of 150% or more; inactive = T/C below 125%.

Tested on: L1210 leukemia ip in BDF1 mice, survival T/C
Assay: NCI In Vivo Anticancer Drug Screen. Data for tumor model L1210 Leukemia (intraperitoneal) in B6D2F1 (BDF1) mice
Conditions: endpoint: mean survival time, higher = longer survival
In short: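 Transplantable tumor model; survival measured in treated vs vehicle control mice. Value = treated/control.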

[1] = dose: 75.0 mg/kg/injection, schedule: Q01DX001 (ip), vehicle: saline
[2] = dose: 150.0 mg/kg/injection, schedule: Q01DX001 (ip), vehicle: saline
[3] = dose: 100.0 mg/kg/injection, schedule: Q04DX003 (ip), vehicle: Klucel (hydroxypropylcellulose) (HPC)
[4] = dose: 200.0 mg/kg/injection, schedule: Q04DX003 (ip), vehicle: Klucel (hydroxypropylcellulose) (HPC)
[5] = dose: 400.0 mg/kg/injection, schedule: Q04DX003 (ip), vehicle: Klucel (hydroxypropylcellulose) (HPC)
[6] = dose: 100.0 mg/kg/injection, schedule: Q01DX009 (ip), vehicle: Klucel (hydroxypropylcellulose) (HPC)
[7] = dose: 100.0 mg/kg/injection, schedule: Q04DX002 (ip), vehicle: saline with Tween-80
[8] = dose: 200.0 mg/kg/injection, schedule: Q04DX002 (ip), vehicle: saline with Tween-80
[9] = dose: 400.0 mg/kg/injection, schedule: Q04DX002 (ip), vehicle: saline with Tween-80
[10] = dose: 200.0 mg/kg/injection, schedule: Q01DX009 (ip), vehicle: Klucel (hydroxypropylcellulose) (HPC)
[11] = dose: 100.0 mg/kg/injection, schedule: Q01DX009 (ip), vehicle: saline with Tween-80
[12] = dose: 200.0 mg/kg/injection, schedule: Q01DX009 (ip), vehicle: saline with Tween-80
[13] = dose: 400.0 mg/kg/injection, schedule: Q01DX009 (ip), vehicle: saline with Tween-80
[14] = dose: 100.0 mg/kg/injection, schedule: Q04DX003 (ip), vehicle: saline with Tween-80
[15] = dose: 200.0 mg/kg/injection, schedule: Q04DX003 (ip), vehicle: saline with Tween-80
[16] = dose: 400.0 mg/kg/injection, schedule: Q04DX003 (ip), vehicle: saline with Tween-80

Measured: T/C

CCN(CC)CCCC(C)Nc1cc(N)nc2nc(-c3ccc(Br)cc3)cnc12 (stereo not given)
inactive: [1] 106 % of control | [2] 101 % of control

COc1cc(OC)c(NC2=CC(c3ccc(Cl)cc3)OC2=O)cc1Cl (stereo not given)
inactive: dose: 100.0 mg/kg/injection, schedule: Q01DX001 (ip), vehicle: Klucel (hydroxypropylcellulose) (HPC) 92 % of control | [3] 92 % of control | dose: 200.0 mg/kg/injection, schedule: Q01DX001 (ip), vehicle: Klucel (hydroxypropylcellulose) (HPC) 94 % of control | [4] 95 % of control | dose: 400.0 mg/kg/injection, schedule: Q01DX001 (ip), vehicle: Klucel (hydroxypropylcellulose) (HPC) 92 % of control | [5] 95 % of control

CC(=O)Nc1ccc(S(=O)(=O)Oc2ccccc2)cc1
inactive: dose: 100.0 mg/kg/injection, schedule: Q04DX003 (ip), vehicle: alcohol 98 % of control | dose: 200.0 mg/kg/injection, schedule: Q04DX003 (ip), vehicle: alcohol 98 % of control | dose: 400.0 mg/kg/injection, schedule: Q04DX003 (ip), vehicle: alcohol 108 % of control

C=CCOP(=O)(N1CC1CC)N1CC1CC (stereo not given)
inactive: dose: 10.0 mg/kg/injection, schedule: Q01DX015 (ip), vehicle: saline 103 % of control | dose: 20.0 mg/kg/injection, schedule: Q01DX015 (ip), vehicle: saline 96 % of control | dose: 40.0 mg/kg/injection, schedule: Q01DX015 (ip), vehicle: saline 102 % of control | dose: 80.0 mg/kg/injection, schedule: Q01DX015 (ip), vehicle: saline 108 % of control

O=[N+]([O-])c1cc([As](=O)(O)O)ccc1Cl
inactive: dose: 50.0 mg/kg/injection, schedule: Q01DX009 (ip), vehicle: Klucel (hydroxypropylcellulose) (HPC) 97 % of control | [6] 97 % of control | [3] 100 % of control | [4] 104 % of control

CCOC(=O)COc1c(C(=O)OC)cc([N+](=O)[O-])cc1[N+](=O)[O-]
inactive: [7] 104 % of control | [8] 97 % of control | [9] 90 % of control

COC(=O)c1ccccc1NC(=O)NCCBr
inactive: [6] 95 % of control | [3] 103 % of control | [10] 93 % of control | [4] 97 % of control | dose: 400.0 mg/kg/injection, schedule: Q01DX009 (ip), vehicle: Klucel (hydroxypropylcellulose) (HPC) 93 % of control | [5] 110 % of control

CC(C)CC1C(C(C)C)C=NN1C (stereo not given)
inactive: dose: 50.0 mg/kg/injection, schedule: Q01DX001 (ip), vehicle: carboxymethylcellulose (CMC) 100 % of control | dose: 100.0 mg/kg/injection, schedule: Q01DX001 (ip), vehicle: carboxymethylcellulose (CMC) 86 % of control | dose: 200.0 mg/kg/injection, schedule: Q01DX001 (ip), vehicle: carboxymethylcellulose (CMC) 100 % of control | dose: 400.0 mg/kg/injection, schedule: Q01DX001 (ip), vehicle: carboxymethylcellulose (CMC) 94 % of control

CC(N)C(=O)NC(Cc1ccccc1)C(=O)O (stereo not given)
inactive: dose: 100.0 mg/kg/injection, schedule: Q01DX001 (ip), vehicle: acetone 101 % of control | dose: 200.0 mg/kg/injection, schedule: Q01DX001 (ip), vehicle: acetone 97 % of control | dose: 400.0 mg/kg/injection, schedule: Q01DX001 (ip), vehicle: acetone 101 % of control

CN(C(=O)c1ccc(Cl)c(Cl)c1)C(c1ccco1)P(=O)(c1ccccc1)c1ccccc1 (stereo not given)
inactive: [11] 90 % of control | [7] 96 % of control | [12] 103 % of control | [8] 90 % of control | [13] 93 % of control | [9] 93 % of control

CN(C)c1ncc(C(N)=O)cn1
inactive: [6] 97 % of control | [3] 100 % of control | [10] 108 % of control | [4] 96 % of control | [5] 110 % of control

CC(C)c1ccc(C(=O)C(O)c2ccc(C(C)C)cc2)cc1 (stereo not given)
inactive: [11] 93 % of control | [12] 97 % of control | [13] 97 % of control

COC(=O)/C=C1\C(C(=O)OC)=Cc2ccccc2N1C
inactive: [11] 97 % of control | [14] 98 % of control | [12] 91 % of control | [15] 98 % of control | [13] 94 % of control | [16] 96 % of control

Nc1ccc(CCCC(=O)NCc2cccnc2)cc1
inactive: [11] 105 % of control | [12] 94 % of control | [13] 96 % of control

N=C(N)/C=C\C(=O)O
inactive: dose: 5.0 mg/kg/injection, schedule: Q01DX Z (ip), vehicle: carboxymethylcellulose (CMC) 93 % of control | dose: 10.0 mg/kg/injection, schedule: Q01DX Z (ip), vehicle: carboxymethylcellulose (CMC) 103 % of control | dose: 20.0 mg/kg/injection, schedule: Q01DX Z (ip), vehicle: carboxymethylcellulose (CMC) 101 % of control

NC(=O)C(=O)NCCCN1CC1
inactive: dose: 12.5 mg/kg/injection, schedule: Q04DX003 (ip), vehicle: Klucel (hydroxypropylcellulose) (HPC) 102 % of control | dose: 25.0 mg/kg/injection, schedule: Q04DX003 (ip), vehicle: Klucel (hydroxypropylcellulose) (HPC) 98 % of control | dose: 50.0 mg/kg/injection, schedule: Q04DX003 (ip), vehicle: Klucel (hydroxypropylcellulose) (HPC) 106 % of control | [3] 118 % of control

CC(C)(C)NC(=O)CCC(CC(=O)NC(C)(C)C)C1([N+](=O)[O-])CCCCC1 (stereo not given)
inactive: [14] 92 % of control | [15] 91 % of control | [16] 86 % of control

CN(CCC(C#N)(CCC#N)c1ccccc1)Cc1ccccc1 (stereo not given)
inactive: [1] 102 % of control | [2] 102 % of control
